The values below come from paper PMC12921516 (ACS Bio & Med Chem Au, 2025).

Read-outs that look alike come from different tables or passages of the source.

For data set [1], the target named is T1, hPTP1B1–400 (Homo sapiens, UniProt P18031).
T1 construct: h PTP1B 1–400 IC 50 (μM ± S.D); made in house
T1 sequence (P18031 1-400): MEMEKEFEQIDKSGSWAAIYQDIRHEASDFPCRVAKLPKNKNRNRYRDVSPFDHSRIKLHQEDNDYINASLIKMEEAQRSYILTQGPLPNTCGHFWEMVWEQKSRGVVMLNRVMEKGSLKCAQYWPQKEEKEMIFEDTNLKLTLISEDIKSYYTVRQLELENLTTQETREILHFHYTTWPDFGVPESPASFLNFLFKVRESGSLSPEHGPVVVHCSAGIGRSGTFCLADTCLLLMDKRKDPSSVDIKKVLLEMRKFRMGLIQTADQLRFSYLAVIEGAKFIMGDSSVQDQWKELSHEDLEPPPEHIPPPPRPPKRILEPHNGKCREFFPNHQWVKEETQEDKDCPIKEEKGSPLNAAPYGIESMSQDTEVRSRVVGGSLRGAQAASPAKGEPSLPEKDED
In words: PTP1B inhibition, pNPP hydrolysis, long form. The class given is biochemical.

Data set [2] concerns HepG2 cells. In words: Western blotting, HepG2 normal model. The class given is cell-based, human. The settings on record: 24 h. How it is done: (§1) HepG2 cells were obtained directly from ATCC (HB-8065) and cultured in DMEM with low glucose, supplemented with fetal bovine serum, 100 U/mL penicillin G, and […] streptomycin. The media was freshly prepared and sterilized by filtration. Cells were maintained with a maximum of 10 passages before being discarded. For cell counting, the cells were washed twice with phosphate-buffered saline (PBS), trypsinized, and counted using a Neubauer chamber. For the insulin-resistant model, 75,000 cells per well were seeded in 6-well plates at 37 °C in 5% CO2 and cultured for 72 h. Subsequently, insulin (0.1 μM) was added to induce insulin resistance for 24 h. After this period, inhibitors were incubated for 24 h, followed by a final 30 min insulin stimulation (0.1 μM) before protein extraction. For the normal model, 75,000 cells per well were seeded in 6-well plates at 37 °C in 5% CO2 and cultured for 96 h. After that, the cells were incubated with the inhibitors for 24 h, followed by protein extraction.
(§2) Treated cells were washed twice with 1 mL of PBS, and proteins were extracted using 300 μL of a buffer solution containing 10% sodium deoxycholate in 10% TEAB, supplemented with a protease and phosphatase inhibitor cocktail. The extracts were heated at 80 °C for 5 min and dissociated by repeated passages through an insulin syringe. The cell extracts were centrifuged at 15,000 rpm for 15 min at 4 °C, and the supernatant was collected. Protein quantification was performed using the bicinchoninic acid assay, and aliquots were prepared for Western blotting. SDS-PAGE was conducted, and proteins were transferred onto a nitrocellulose membrane. The membrane was blocked with 10% skim milk in TBST for 1 h and incubated overnight with primary antibodies (1:400 dilution). Secondary antibodies conjugated to horseradish peroxidase were diluted 1:2,000, and the membranes were incubated for 1 h at room temperature. Blots were visualized using the ChemiDoc MP (Bio-Rad), and densitometric analysis was performed with ImageJ (U.S. National Institutes of Health). Statistical analyses were conducted using GraphPad Prism 8.0.
compounds at 24 h of treatment. β-actin was employed as loading control. b) Densitometric analysis of western blot images
employing ImageJ analysis software. Bar graphs represent the mean ± SEM of normalized values. The control levels were set to
1. Asterisks indicate statistical significance according to the Dunn test. p* < 0.05
(§3) (1 picture or pasted object on this page, not shown here)

Data set [3] relates to insulin-resistant HepG2 cells. In words: Western blotting, insulin-resistant HepG2 model. The class given is cell-based, human. To be noted: 24 h. How it is done: as §1, §2
resistance model in HepG2 cells . a) Western blotting representative analysis (n=3) of PTP1B, p -AKT, p-IRS1 and p-STAT3 levels
of HepG2 cells treated with the compounds at 24 h of treatment. β-actin was employed as loading control. b) Densitometric
analysis of western blot images employing ImageJ analysis software. Bar graphs represent the mean ± SEM of normalized values.
The control levels were set to 1. Asterisks indicate statistical significance according to the Dunn test. p* < 0.05.
as §3
Background: Immunoblotting shows a protein as a band on a membrane.

Data set [4] relates to HepG2 cells. In words: Cell viability of HepG2 with crystal violet. The class given is cell-based, human. To be noted: 1, 10, and 30 µM for 24, 48 and 72 h. The method, then: A 96-well plate was seeded with 3,000 HepG2 cells per well and incubated for 72 h. Subsequently, the cells were treated with test compounds at various concentrations for 24, 48, and 72 h. After incubation, the medium was removed, and 100 μL of 1% glutaraldehyde was added for 15 min. The glutaraldehyde was then removed, and 50 μL of 0.5% crystal violet (dissolved in 25% methanol) was added for 30 min. The crystal violet staining solution was subsequently removed, and the plate was thoroughly rinsed with tap water. The precipitate was dissolved in a 10% acetic acid solution, mixed for 15 min, and the absorbance was measured at 590 nm using a plate reader (xMark Microplate Spectrophotometer, Bio-Rad).
Figure S48. Cell viability assessment by crystal violet staining. HepG2 cell viability was evaluated after treatment with the respective compounds at concentrations of 1 , 10, and 30 µM for 24 , 48 and 72 hours. Bar graphs represent mean ± SEM. No significant differences were detected using ANOVA. […]

The target of data set [5] is T1, hPTP1B1–400. In words: Enzymatic kinetics studies (Lineweaver–Burk, model fitting). It is filed as biochemical. To be noted: for inhibition type: hPTP1B1–400, best fit model; for Km / Vmax: hPTP1B1–400 with inhibitor. The method, then: Kinetic analyses were conducted using varying concentrations of substrate and inhibitor.
Five increasing concentrations of each inhibitor were tested, according to their previously determined IC50 values. The negative control was prepared by omitting the inhibitor in the presence of the enzyme and substrate. The Supporting Information includes detailed eqs (E1–E5) used to determine the kinetic parameters and mechanisms involved in PTP1B inhibition.
Equation 1 was used to obtain enzyme kinetic parameters by fitting data to the Michaelis-Menten model (Origin Pro
The equations defined for the following non-linear inhibition models were used to determine the mechanism of
PTP1B inhibition: competitive (E2), non-competitive (E3), uncompetitive (E4), and mixed (E5) (Origin Pro 2018 (64
(1+ ( ))(x05nh ) + (1+ ( )) (x05 nh)
Vmax is the maximum velocity, x is the substrate concentration, i is the inhibitor concentration, nh is the number of
Hill. Ki is the inhibition constant, and Km is the Michaelis constant.

Data set [6] deals with T2, hTCPTP1–415 (Homo sapiens, UniProt P17706).
T2 construct: h TCPTP 1–415 IC 50 (μM ± S.D); made in house
T2 sequence (P17706 1-415): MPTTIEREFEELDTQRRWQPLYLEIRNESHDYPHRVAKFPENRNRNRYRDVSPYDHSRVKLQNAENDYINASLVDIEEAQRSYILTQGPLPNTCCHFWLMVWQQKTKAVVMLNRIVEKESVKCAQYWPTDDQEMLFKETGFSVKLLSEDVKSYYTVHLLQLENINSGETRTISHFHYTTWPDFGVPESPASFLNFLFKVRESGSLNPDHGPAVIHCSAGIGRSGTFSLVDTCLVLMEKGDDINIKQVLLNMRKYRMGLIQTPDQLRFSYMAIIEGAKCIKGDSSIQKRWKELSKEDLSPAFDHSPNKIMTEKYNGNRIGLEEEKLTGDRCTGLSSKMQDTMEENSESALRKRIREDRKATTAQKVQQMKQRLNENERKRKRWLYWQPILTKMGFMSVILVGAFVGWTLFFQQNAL
To be noted: read-out: hTCPTP1–415 IC50, cited from earlier work.

Data set [7] addresses T2, hTCPTP1–415. In words: TCPTP inhibitory activity. The class given is biochemical. To be noted: pNPP substrate; tested up to 100 μM. The method, then: The effectiveness and safety of a PTP1B inhibitor primarily depend on its selectivity, given that protein tyrosine phosphatases share significant structural homology within their catalytic domains. […] Ertiprotafib was also included in this study.
(§4) Aliquots of 0–10 μL of the test compounds (triplicate) were taken and incubated for 15 min at 37 °C with 85 μL of Tris buffer solution (50 mM, pH 6.8) containing PTP1B enzyme and 5 μL of p-nitrophenyl phosphate substrate (pNPP, 10 mM). The absorbance of the hydrolysis product, p-nitrophenol (pNP), was measured at 405 nm using a 96-microplate absorbance reader (Accuris SmartReader 96). The inhibitory activity was determined according to eq . %enzyme=(A405b/A405c)×100 1 Where: % enzyme is the percentage of inhibition for PTP1B or TCPTP
(§5) The IC50 was calculated using regression analysis, eq : %inhibition=A100/1+(I/IC50)^s 2 Where: A100: Maximum inhibition

The subject of a further data set is hPTP1B1–393. To be noted: reported elsewhere; cited from earlier work.
A further data set deals with T3, hPTP1B1–285 (Homo sapiens, UniProt P18031).
T3 construct: h PTP1B 1–285 IC 50 (μM ± S.D); made in house
T3 sequence (P18031 1-285): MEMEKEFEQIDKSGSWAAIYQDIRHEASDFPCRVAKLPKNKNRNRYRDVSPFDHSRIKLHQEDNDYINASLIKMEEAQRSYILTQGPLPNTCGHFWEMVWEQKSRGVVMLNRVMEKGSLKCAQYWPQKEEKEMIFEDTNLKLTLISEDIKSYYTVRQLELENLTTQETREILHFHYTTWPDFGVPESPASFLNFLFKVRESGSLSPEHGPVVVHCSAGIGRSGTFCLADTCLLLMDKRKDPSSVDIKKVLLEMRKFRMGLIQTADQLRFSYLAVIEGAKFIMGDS
The settings on record: footnote c: IC50 values retrieved from the reference; cited from earlier work.

The target of data set [8] is T1, hPTP1B1–400. To be noted: footnote c: IC50 values retrieved from the reference; previously tested by our group; cited from earlier work.
The subject of a further data set is HFF-1 cells. In words: Cytotoxicity, Sulforhodamine B assay. It is filed as cell-based, human. The settings on record: HFF-1 proliferation, 48-h incubation, 0.78 μM to 100 μM. How it is done:
Given the significance of a drug candidate’s toxicity in relation to its inhibition potential, a cytotoxicity assay was conducted using Normal Human Foreskin Fibroblasts (HFF-1).
All assays were carried out in triplicate. Cell proliferation was determined by the Sulforhodamine B assay, and the half-maximal cytotoxic concentration (CC50) was determined by Probit analysis.
A general note: The SRB assay estimates cell density from bound dye.

For data set [9], the system named is STZ-induced diabetic rats. The settings on record: earlier study of the group; cited from earlier work.
The target in data set [10] is T1, hPTP1B1–400. In words: PTP1B inhibition, pNPP hydrolysis, long form. The class given is biochemical. To be noted: pNPP substrate, 15 min 37 °C, pH 6.8; ± S.D. The method, then:
The inhibitory activity of PTP1B was assessed using the long form of the PTP1B enzyme (hPTP1B1–400). This enzyme comprises a highly conserved N-terminal catalytic domain, known as the PTP domain (PTP1B1–300), in addition to an intrinsically disordered regulatory domain (PTP1B301–400).
The IC50 values obtained from these tests are detailed in Table .
as §4, §5

In the case of `CC1(C)c2c(cnn2-c2ccc(C(=O)O)cc2)C[C@]2(C)[C@H]3C(=O)C=C4[C@@H]5C[C@@](C)(C(=O)O)CC[C@]5(C)CC[C@@]4(C)[C@]3(C)CC[C@@H]12` [compound 5e, (20β)-2′-(4-Carboxyphenyl)-11-oxo-2′H-oleana-2,12-dieno[3,2-c]pyrazol-29-oic Acid], on hPTP1B1–400 [1], the stability during evaluation entry is “unstable and rapidly degraded during evaluation”.
Regarding `C[C@H]1[C@H](C)CC[C@]2(C(=O)O)CC[C@]3(C)C(=CC[C@@H]4[C@@]5(C)CC[C@H](O)C(C)(C)[C@@H]5CC[C@]43C)[C@H]12` [Ursolic acid], in the data set on HepG2 cells [2], the “AKT phosphorylation (p-AKT) levels” value is “did not show significant changes”; the PTP1B levels result is reported as “neither metformin, ursolic acid, nor the GA derivatives significantly reduced PTP1B levels”; the p-IRS levels result was “did not show significant changes”; the p-STAT3 levels entry is “did not show significant changes”. In addition, in [3], the “AKT phosphorylation (p-AKT) levels” value was “did not show significant changes”; the PTP1B levels entry is “neither metformin, ursolic acid, nor the GA derivatives significantly reduced PTP1B levels”; the p-IRS levels result is on record as “did not show significant changes”; the p-STAT3 levels result is “did not show significant changes”. For the same molecule, the HepG2 cell viability entry in the data set on HepG2 cells [4] is reported as “No significant differences”. Also, on hPTP1B1–400 [5], the inhibition type result was “mixed-type”, the Michaelis constant (Km) was 1700 ± 330 µM and the Vmax is listed as 0.63 ± 0.08 mM/min. The inhibition type entry against hPTP1B1–400 [5] (listed as ursolic acid) is “mixed”. Moreover, at hTCPTP1–415 [6] (footnote b: IC50 values retrieved from the reference), the IC50 is more than 400 µM.
On hTCPTP1–415 [7], `Cc1cc(-c2c3ccccc3c(Br)c3sc(C)c(C)c23)cc(C)c1O[C@H](Cc1ccccc1)C(=O)O` [Ertiprotafib, reference compound] gave an IC50 of more than 100 µM. In addition, the inhibition type entry in the data set with hPTP1B1–393 is on record as “noncompetitive inhibition”. Moreover, at hPTP1B1–400 [5], the inhibition type entry is given as “uncompetitive”, the Km turned out to be 940 ± 190 µM and the Vmax was 1.71 ± 0.24 mM/min.
`O=C(O)C(=O)Nc1sc2c(c1C(=O)O)CCNC2` [TCS401]: the IC50 on hPTP1B1–285 was 12.4 ± 1 µM; at hPTP1B1–400 [8] it was 8.1 ± 1 µM; on hTCPTP1–415 [6] (footnote c: IC50 values retrieved from the reference, previously tested by our group), 6.7 ± 0.6 µM.
For the molecule `CC1(C)c2[nH]c3ccc(C(F)(F)F)cc3c2C[C@]2(C)[C@H]3C(=O)C=C4[C@@H]5C[C@@](C)(C(=O)O)CC[C@]5(C)CC[C@@]4(C)[C@]3(C)CC[C@@H]12` [FC-114, reference compound], half-maximal cytotoxicity in the data set with HFF-1 cells (CC50) was put at 59.5 ± 3 µM. Moreover, the antihyperglycemic effects entry in data set [9] is “superior antihyperglycemic effects compared to glibenclamide and acarbose, but did not outperform pioglitazone”. The molecule also yielded an IC50 against hPTP1B1–400 [10] of 1.75 ± 0.08 µM.

The term Km denotes the concentration of substrate that gives half-maximal velocity. One may read the Vmax as the top rate of the reaction or transport when substrate is in excess. The IC50 is the concentration that gives 50% inhibition. The CC50 is the concentration giving 50% cytotoxicity.
